Experimental data from US20230159532A1, “PARATHYROID HORMONE (PTH) RECEPTOR ANTAGONISTS AND USES THEREOF” (Crinetics Pharmaceuticals, Inc., priority 2021, published 2023).
pKi: −log10 of the molar value.

Target: T1, human PTHR1 receptor (Homo sapiens, UniProt Q03431)
T1 construct: purchased Eurofins HTS030M
T1 sequence (Q03431 27-593): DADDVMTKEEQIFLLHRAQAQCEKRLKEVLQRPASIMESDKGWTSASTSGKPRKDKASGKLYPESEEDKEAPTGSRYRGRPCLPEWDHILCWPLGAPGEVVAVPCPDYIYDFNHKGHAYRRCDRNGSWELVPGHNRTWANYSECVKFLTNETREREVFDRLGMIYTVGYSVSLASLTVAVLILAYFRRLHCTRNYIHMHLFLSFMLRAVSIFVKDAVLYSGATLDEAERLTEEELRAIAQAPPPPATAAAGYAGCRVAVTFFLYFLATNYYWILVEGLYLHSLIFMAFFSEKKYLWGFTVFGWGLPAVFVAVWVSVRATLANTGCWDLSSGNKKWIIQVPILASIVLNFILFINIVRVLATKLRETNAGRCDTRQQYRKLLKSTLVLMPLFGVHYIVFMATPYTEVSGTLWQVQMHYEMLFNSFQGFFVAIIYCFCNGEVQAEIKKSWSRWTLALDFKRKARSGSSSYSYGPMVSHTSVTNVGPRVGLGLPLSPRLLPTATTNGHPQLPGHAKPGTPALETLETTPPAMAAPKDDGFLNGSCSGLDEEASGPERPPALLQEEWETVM
Assay: Competitive antagonist binding assay for hPTH-R1 (radioactive competition binding, SPA beads)
Details: human PTHR1 membranes, [125I]-[Nle8,18,Tyr34]-PTH(1-34) 0.2 nM, 90 minutes at room temperature; read-out: hPTHR1 Ki
In short: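 Displacement of 0.2 nM radioiodinated [Nle8,18,Tyr34]-PTH(1-34) from membrane-bound human PTHR1 measured by scintillation proximity after 90 min at room temperature. Compounds typically 0-10,000 nM final, pH 7.4 HEPES/Mg/Ca buffer with BSA and detergent. Ki calculated from competition data.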

`CCN1C(=O)N(c2ccc(NCCNC)cc2)c2cc(Cl)ccc2-c2cc(F)cnc21` [2-4, 13-chloro-8-ethyl-4-fluoro-10-(4-{[2-(methylamino)ethyl]amino}phenyl)-6,8,10-triazatricyclo[9.4.0.0^2,7]pentadeca-1(11),2(7),3,5,12,14-hexaen-9-one] and `CCN1C(=O)N(c2ccc(NCCNC)cc2)c2cc(Cl)ccc2-c2cc(C)cnc21` [2-5, 13-chloro-8-ethyl-4-methyl-10-(4-{[2-(methylamino)ethyl]amino}phenyl)-6,8,10-triazatricyclo[9.4.0.0^2,7]pentadeca-1(11),2(7),3,5,12,14-hexaen-9-one] cannot be ordered by pKi: > 7.00 for the first, > 7.00 for the second.

`CCN1C(=O)N(c2ccc(NCCNC)cc2)c2cc(OC)ccc2-c2cc(Cl)cnc21` [2-6, 4-chloro-8-ethyl-13-methoxy-10-(4-{[2-(methylamino)ethyl]amino}phenyl)-6,8,10-triazatricyclo[9.4.0.0^2,7]pentadeca-1(11),2(7),3,5,12,14-hexaen-9-one] and `CCN1C(=O)N(c2ccc(NCCNCCO)cc2)c2cc(Cl)ccc2-c2cc(Cl)cnc21` [2-9, 4,13-dichloro-8-ethyl-10-[4-({2-[(2-hydroxyethyl)amino]ethyl}amino)phenyl]-6,8,10-triazatricyclo[9.4.0.0^2,7]pentadeca-1(11),2(7),3,5,12,14-hexaen-9-one] cannot be ordered by pKi: > 7.00 for the first, > 7.00 for the second.

`CCN1C(=O)N(c2ccc(NCCNCCO)cc2F)c2cc(Cl)ccc2-c2cc(Cl)cnc21` [2-7, 4,13-dichloro-8-ethyl-10-[2-fluoro-4-({2-[(2-hydroxyethyl)amino]ethyl}amino)phenyl]-6,8,10-triazatricyclo[9.4.0.0^2,7]pentadeca-1(11),2(7),3,5,12,14-hexaen-9-one] and `CCN1C(=O)N(c2ccc(NCCNC)cc2F)c2cc(Cl)ccc2-c2cc(Cl)cnc21` [2-8, 4,13-dichloro-8-ethyl-10-(2-fluoro-4-{[2-(methylamino)ethyl]amino}phenyl)-6,8,10-triazatricyclo[9.4.0.0^2,7]pentadeca-1(11),2(7),3,5,12,14-hexaen-9-one] cannot be ordered by pKi: > 7.00 for the first, > 7.00 for the second.

`CCN1C(=O)N(c2ncc(NCCNCCO)cc2F)c2cc(Cl)ccc2-c2cc(Cl)cnc21` [2-10, 4,13-dichloro-8-ethyl-10-[3-fluoro-5-({2-[(2-hydroxyethyl)amino]ethyl}amino)pyridin-2-yl]-6,8,10-triazatricyclo[9.4.0.0^2,7]pentadeca-1(11),2(7),3,5,12,14-hexaen-9-one] and `CCN1C(=O)N(c2ncc(NCCNC)cc2F)c2cc(Cl)ccc2-c2cc(Cl)cnc21` [2-11, 4,13-dichloro-8-ethyl-10-(3-fluoro-5-{[2-(methylamino)ethyl]amino}pyridin-2-yl)-6,8,10-triazatricyclo[9.4.0.0^2,7]pentadeca-1(11),2(7),3,5,12,14-hexaen-9-one] cannot be ordered by pKi: > 7.00 for the first, > 7.00 for the second.

`CCN1C(=O)N(c2ccc(NCCNC3CCOCC3)cc2F)c2cc(Cl)ccc2-c2cc(Cl)cnc21` [2-12, 4,13-dichloro-8-ethyl-10-[2-fluoro-4-({2-[(oxan-4-yl)amino]ethyl}amino)phenyl]-6,8,10-triazatricyclo[9.4.0.0^2,7]pentadeca-1(11),2(7),3,5,12,14-hexaen-9-one] and `CCN1C(=O)N(c2ncc(NCCNC3CCOCC3)cc2F)c2cc(Cl)ccc2-c2cc(Cl)cnc21` [2-14, 4,13-dichloro-8-ethyl-10-[3-fluoro-5-({2-[(oxan-4-yl)amino]ethyl}amino)pyridin-2-yl]-6,8,10-triazatricyclo[9.4.0.0^2,7]pentadeca-1(11),2(7),3,5,12,14-hexaen-9-one] cannot be ordered by pKi: > 7.00 for the first, > 7.00 for the second.

`CCN1C(=O)N(c2ccc(NCCNC3CCOCC3)cc2)c2cc(Cl)ccc2-c2cc(Cl)cnc21` [2-13, 4,13-dichloro-8-ethyl-10-[4-({2-[(oxan-4-yl)amino]ethyl}amino)phenyl]-6,8,10-triazatricyclo[9.4.0.0^2,7]pentadeca-1(11),2(7),3,5,12,14-hexaen-9-one] and `CCN1C(=O)N(c2c(F)cc(NCCNC)cc2F)c2c(ccc(Cl)c2F)-c2cc(Cl)cnc21` [3-9, 4,13-dichloro-10-(2,6-difluoro-4-{[2-(methylamino)ethyl]amino}phenyl)-8-ethyl-12-fluoro-6,8,10-triazatricyclo[9.4.0.0^2,7]pentadeca-1(11),2(7),3,5,12,14-hexaen-9-one] cannot be ordered by pKi: > 7.00 for the first, > 7.00 for the second.

`CCN1C(=O)N(c2c(F)cc(NCCNC)cc2F)c2cc(Cl)ccc2-c2ccc(C)nc21` [3-1, 13-chloro-10-(2,6-difluoro-4-{[2-(methylamino)ethyl]amino}phenyl)-8-ethyl-5-methyl-6,8,10-triazatricyclo[9.4.0.0^2,7]pentadeca-1(11),2(7),3,5,12,14-hexaen-9-one] and `CCN1C(=O)N(c2c(F)cc(NCCNC)cc2F)c2cc(Cl)ccc2-c2c1ncc(Cl)c2C` [3-5, 4,13-dichloro-10-(2,6-difluoro-4-{[2-(methylamino)ethyl]amino}phenyl)-8-ethyl-3-methyl-6,8,10-triazatricyclo[9.4.0.0^2,7]pentadeca-1(11),2(7),3,5,12,14-hexaen-9-one] cannot be ordered by pKi: > 7.00 for the first, > 7.00 for the second.

`CCN1C(=O)N(c2c(F)cc(NCCNCCO)cc2F)c2cc(Cl)c(C)cc2-c2cccnc21` [3-2, 13-chloro-10-[2,6-difluoro-4-({2-[(2-hydroxyethyl)amino]ethyl}amino)phenyl]-8-ethyl-14-methyl-6,8,10-triazatricyclo[9.4.0.0^2,7]pentadeca-1(11),2(7),3,5,12,14-hexaen-9-one] and `CCN1C(=O)N(c2c(F)cc(NCCNC)cc2F)c2cc(Cl)c(C)cc2-c2cccnc21` [3-3, 13-chloro-10-(2,6-difluoro-4-{[2-(methylamino)ethyl]amino}phenyl)-8-ethyl-14-methyl-6,8,10-triazatricyclo[9.4.0.0^2,7]pentadeca-1(11),2(7),3,5,12,14-hexaen-9-one] cannot be ordered by pKi: > 7.00 for the first, > 7.00 for the second.

`CCN1C(=O)N(c2c(F)cc(NCCNCCO)cc2F)c2cc(Cl)ccc2-c2c1ncc(Cl)c2C` [3-4, 4,13-dichloro-10-[2,6-difluoro-4-({2-[(2-hydroxyethyl)amino]ethyl}amino)phenyl]-8-ethyl-3-methyl-6,8,10-triazatricyclo[9.4.0.0^2,7]pentadeca-1(11),2(7),3,5,12,14-hexaen-9-one] and `CCN1C(=O)N(c2c(F)cc(NCCNCCO)cc2F)c2cc(Cl)ccc2-c2c1ncc(F)c2C` [3-6, 13-chloro-10-[2,6-difluoro-4-({2-[(2-hydroxyethyl)amino]ethyl}amino)phenyl]-8-ethyl-4-fluoro-3-methyl-6,8,10-triazatricyclo[9.4.0.0^2,7]pentadeca-1(11),2(7),3,5,12,14-hexaen-9-one] cannot be ordered by pKi: > 7.00 for the first, > 7.00 for the second.

First: CCN1C(=O)N(c2c(F)cc(NCCNC)cc2F)c2cc(Cl)ccc2-c2c1ncc(F)c2C [3-7, 13-chloro-10-(2,6-difluoro-4-{[2-(methylamino)ethyl]amino}phenyl)-8-ethyl-4-fluoro-3-methyl-6,8,10-triazatricyclo[9.4.0.0^2,7]pentadeca-1(11),2(7),3,5,12,14-hexaen-9-one]
Second: CCN1C(=O)N(c2c(F)cc(NCCN)cc2F)c2cc(Cl)ccc2-c2c1ncc(Cl)c2C [3-8, 10-{4-[(2-aminoethyl)amino]-2,6-difluorophenyl}-4,13-dichloro-8-ethyl-3-methyl-6,8,10-triazatricyclo[9.4.0.0^2,7]pentadeca-1(11),2(7),3,5,12,14-hexaen-9-one]
The pKi of the first is higher: > 7.00 for the first, 6.00 to 7.00 for the second. The first binds more tightly here.

`CCN1C(=O)N(c2c(F)cc(NCCNCCO)cc2F)c2c(ccc(Cl)c2F)-c2cc(Cl)cnc21` [3-10, 4,13-dichloro-10-[2,6-difluoro-4-({2-[(2-hydroxyethyl)amino]ethyl}amino)phenyl]-8-ethyl-12-fluoro-6,8,10-triazatricyclo[9.4.0.0^2,7]pentadeca-1(11),2(7),3,5,12,14-hexaen-9-one] and `CCN1C(=O)N(c2c(F)cc(NCCNCCCC(=O)O)cc2F)c2c(ccc(Cl)c2F)-c2cc(Cl)cnc21` [3-11, 4-({2-[(4-{4,13-dichloro-8-ethyl-12-fluoro-9-oxo-6,8,10-triazatricyclo[9.4.0.0^2,7]pentadeca-1(11),2(7),3,5,12,14-hexaen-10-yl}-3,5-difluorophenyl)amino]ethyl}amino)butanoic acid] cannot be ordered by pKi: > 7.00 for the first, > 7.00 for the second.

`CCN1C(=O)N(c2c(F)cc(NCCNCCO)cc2F)c2cc(C#N)ncc2-c2cc(F)cnc21` [3-12, 8-[2,6-difluoro-4-({2-[(2-hydroxyethyl)amino]ethyl}amino)phenyl]-10-ethyl-14-fluoro-9-oxo-4,8,10,12-tetraazatricyclo[9.4.0.0^2,7]pentadeca-1(11),2(7),3,5,12,14-hexaene-5-carbonitrile] and `CCN1C(=O)N(c2c(F)cc(NCCNCCO)cc2F)c2cc(C#N)cnc2-c2cc(F)cnc21` [3-13, 8-[2,6-difluoro-4-({2-[(2-hydroxyethyl)amino]ethyl}amino)phenyl]-10-ethyl-14-fluoro-9-oxo-3,8,10,12-tetraazatricyclo[9.4.0.0^2,7]pentadeca-1(11),2(7),3,5,12,14-hexaene-5-carbonitrile] cannot be ordered by pKi: > 7.00 for the first, > 7.00 for the second.
